Source: patent publication US20190046539A1, “PROPHYLACTIC OR THERAPEUTIC AGENT FOR NEUROPATHIC PAIN ASSOCIATED WITH GUILLAIN-BARRE SYNDROME” (KYUSHU UNIVERSITY, priority 2011, published 2019)

How the values were obtained:
[1] = system: experimental autoimmune neuritis (EAN) rat model; experiment: Preventive administration, pain threshold of EAN rat model; format: in vivo; conditions: preventive continuous administration into the subarachnoid space by Micro Infusion Pump from immunization with P2 peptide-adjuvant; male LEW/CrlCrlj rat; FIG. 2
Excerpt: (§1) The effect of P2X4 receptor antagonist on neuropathic pain was examined using an experimental autoimmune neuritis (EAN) rat model (Examples 3 and 4), which has been used as an experimental model for Guillain-Barré syndrome ([…]).
Six-week-old male LEW/CrlCrlj rat was acclimatized for about one week, and an indwelling polystyrene catheter with a 0.30 mm outside diameter was placed into the subarachnoid space. Three days or more after indwelling of the catheter for administration into the subarachnoid space, the rat was anesthetized with isoflurane, and an adjuvant or P2 peptide-adjuvant solution was administered by intradermal tale base injection in an amount of 80 μg/80 μL/rat. The compound A was continuously administered by Micro Infusion Pump (Primetech). The pump was placed at the same time of administration of P2 peptide-adjuvant.

[2] = system: experimental autoimmune neuritis (EAN) rat model; experiment: Therapeutic administration, pain threshold of EAN rat model; format: in vivo; conditions: therapeutic administration into the subarachnoid space from thirteen days after immunization (average manifestation score 2 or more); male LEW/CrlCrlj rat; FIG. 3
Excerpt: as §1
Six-week-old male LEW/CrlCrlj rat was acclimatized for about one week, and an indwelling polystyrene catheter with a 0.30 mm outside diameter was placed into the subarachnoid space. Three days or more after indwelling of the catheter for administration into the subarachnoid space, the rat was anesthetized with isoflurane, and an adjuvant or P2 peptide-adjuvant solution was administered by intradermal tale base injection in an amount of 80 μg/80 μL/rat. Micro Infusion Pump was simultaneously placed into the back of the rat, and administration of the vehicle into the subarachnoid space was initiated. After immunization, symptom was observed (Table 2), and change of pain threshold was observed.

## O=C1CC(=O)N(c2cccc(-c3nnn[nH]3)c2)c2ccc3ccccc3c2N1.[K] [Compound A, 5-[3-(1H-tetrazol-5-yl)phenyl]-1H-naphtho[1,2-b][1,4]diazepine-2,4(3H,5H)-dione potassium salt]
[1]
  influence on pain threshold (allodynia): suppress pains in initial and later manifestations of the disease
[2]
  influence on pain threshold (analgesic effect): significant analgesic effect on pain in later manifestation of the disease
